We go through twelve compounds from ChEMBL document CHEMBL3877252, “Fluorescein hydrazones: A series of novel non-intercalative topoisomerase IIα catalytic inhibitors induce G1 arrest and apoptosis in breast and colon cancer cells” (Eur J Med Chem, 2017).

The structures appear in SMILES notation. Some results are limits rather than exact numbers.

Test [1] deals with T1, DNA topoisomerase 1 (Homo sapiens) (UniProt P11387).
T1 sequence (whole entry): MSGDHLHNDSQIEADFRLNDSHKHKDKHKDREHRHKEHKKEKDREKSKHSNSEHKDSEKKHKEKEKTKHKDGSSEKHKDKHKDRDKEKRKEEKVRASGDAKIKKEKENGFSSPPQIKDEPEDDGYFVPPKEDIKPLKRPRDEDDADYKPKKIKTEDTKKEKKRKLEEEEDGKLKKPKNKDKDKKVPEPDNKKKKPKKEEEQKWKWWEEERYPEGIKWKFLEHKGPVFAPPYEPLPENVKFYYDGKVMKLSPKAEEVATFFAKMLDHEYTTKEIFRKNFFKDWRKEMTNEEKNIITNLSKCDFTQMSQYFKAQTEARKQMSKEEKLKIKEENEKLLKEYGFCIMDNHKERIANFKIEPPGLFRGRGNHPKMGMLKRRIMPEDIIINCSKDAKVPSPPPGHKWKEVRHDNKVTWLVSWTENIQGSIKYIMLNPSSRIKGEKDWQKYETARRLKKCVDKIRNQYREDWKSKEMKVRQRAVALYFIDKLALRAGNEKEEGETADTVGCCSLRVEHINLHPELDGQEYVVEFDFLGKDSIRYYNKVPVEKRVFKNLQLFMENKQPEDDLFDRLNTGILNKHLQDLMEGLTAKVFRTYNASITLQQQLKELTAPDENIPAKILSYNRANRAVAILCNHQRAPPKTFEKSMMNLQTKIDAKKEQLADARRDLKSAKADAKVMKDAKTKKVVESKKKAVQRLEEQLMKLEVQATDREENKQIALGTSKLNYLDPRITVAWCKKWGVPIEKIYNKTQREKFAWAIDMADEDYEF
The test can be described thus: Inhibition of human topoisomerase-1 assessed as inhibition of relaxation of supercoiled pBR322 plasmid DNA at 100 uM measured after 1 hr by ethidium bromide staining based agarose gel electrophoresis relative to control.

The nature of test [2]: Antiproliferative activity against human DU145 cells measured after 72 hrs by CCK8 assay. The class given is functional, cell-based. The note with it: DU-145, 72 h.
For test [3], the target named is T1, DNA topoisomerase 1 (Homo sapiens). The test can be described thus: Inhibition of human topoisomerase-1 assessed as inhibition of relaxation of supercoiled pBR322 plasmid DNA at 20 uM measured after 1 hr by ethidium bromide staining based agarose gel electrophoresis relative to control.
The nature of test [4]: Antiproliferative activity against human MCF7 cells measured after 72 hrs by CCK8 assay. The class given is functional, cell-based. Conditions: MCF7, 72 h.
Test [5] can be described thus: Antiproliferative activity against human T47D cells measured after 72 hrs by CCK8 assay. The class given is functional, cell-based. (Formazan colour is commonly taken as a measure of viable cells.)
Test [6] in a line: Antiproliferative activity against human HCT15 cells measured after 72 hrs by CCK8 assay. The format is functional, cell-based. Conditions: HCT-15, 72 h.
For test [7], the target named is DNA topoisomerase 2-alpha (Homo sapiens) (UniProt P11388). The test can be described thus: Inhibition of human topoisomerase-2 alpha assessed as inhibition of relaxation of supercoiled pBR322 plasmid DNA at 20 uM measured after 1 hr by ethidium bromide staining based agarose gel electrophoresis relative to control.
Test [8] has the same target. The test can be described thus: Inhibition of human topoisomerase-2 alpha assessed as inhibition of relaxation of supercoiled pBR322 plasmid DNA at 100 uM measured after 1 hr by ethidium bromide staining based agarose gel electrophoresis relative to control.

Chain of DNA topoisomerase 2-alpha (Homo sapiens) (P11388 whole entry): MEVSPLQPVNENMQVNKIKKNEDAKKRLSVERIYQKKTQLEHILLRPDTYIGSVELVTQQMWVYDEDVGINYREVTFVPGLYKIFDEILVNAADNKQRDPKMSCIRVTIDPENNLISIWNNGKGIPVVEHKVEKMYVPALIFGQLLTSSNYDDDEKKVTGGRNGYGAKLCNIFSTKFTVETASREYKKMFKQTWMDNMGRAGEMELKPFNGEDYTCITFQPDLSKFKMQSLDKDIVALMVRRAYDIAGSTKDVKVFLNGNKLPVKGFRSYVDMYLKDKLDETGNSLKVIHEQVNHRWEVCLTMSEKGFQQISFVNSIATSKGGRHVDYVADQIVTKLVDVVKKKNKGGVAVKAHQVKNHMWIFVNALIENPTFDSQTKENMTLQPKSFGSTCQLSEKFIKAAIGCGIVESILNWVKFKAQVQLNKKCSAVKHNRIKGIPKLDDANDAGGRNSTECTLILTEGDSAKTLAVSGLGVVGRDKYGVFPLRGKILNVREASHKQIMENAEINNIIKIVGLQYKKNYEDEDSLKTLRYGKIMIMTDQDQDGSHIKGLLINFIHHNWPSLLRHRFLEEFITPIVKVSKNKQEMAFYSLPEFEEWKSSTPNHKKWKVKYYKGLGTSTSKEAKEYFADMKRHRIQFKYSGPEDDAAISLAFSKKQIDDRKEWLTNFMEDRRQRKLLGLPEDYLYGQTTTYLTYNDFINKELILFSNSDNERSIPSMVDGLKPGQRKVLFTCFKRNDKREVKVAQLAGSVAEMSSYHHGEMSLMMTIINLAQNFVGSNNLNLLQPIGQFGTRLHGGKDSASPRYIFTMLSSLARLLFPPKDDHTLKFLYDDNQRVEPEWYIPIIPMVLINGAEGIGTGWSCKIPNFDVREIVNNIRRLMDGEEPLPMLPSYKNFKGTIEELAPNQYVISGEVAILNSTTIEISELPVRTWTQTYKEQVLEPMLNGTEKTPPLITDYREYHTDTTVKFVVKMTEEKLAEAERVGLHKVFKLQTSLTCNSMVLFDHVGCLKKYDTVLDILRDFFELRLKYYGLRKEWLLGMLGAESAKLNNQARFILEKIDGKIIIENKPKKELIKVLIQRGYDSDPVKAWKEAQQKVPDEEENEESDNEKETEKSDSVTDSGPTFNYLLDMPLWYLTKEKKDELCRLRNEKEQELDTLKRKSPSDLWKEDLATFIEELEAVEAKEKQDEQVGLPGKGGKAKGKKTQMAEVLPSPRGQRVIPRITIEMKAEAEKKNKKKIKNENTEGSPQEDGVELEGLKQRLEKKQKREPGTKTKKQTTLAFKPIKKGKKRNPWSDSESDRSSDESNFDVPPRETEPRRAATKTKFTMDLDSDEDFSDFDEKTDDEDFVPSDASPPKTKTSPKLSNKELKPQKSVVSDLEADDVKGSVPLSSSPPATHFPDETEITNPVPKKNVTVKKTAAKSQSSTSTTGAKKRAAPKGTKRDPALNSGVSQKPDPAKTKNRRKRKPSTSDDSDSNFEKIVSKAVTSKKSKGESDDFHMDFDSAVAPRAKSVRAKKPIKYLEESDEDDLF

In general, inhibition refers to the percentage by which the read-out fell short of the control. The term IC50 denotes the concentration that inhibits the measured activity by half. Consider `CCOc1ccc2c(c1)Oc1cc(OC(=O)c3ccccc3[N+](=O)[O-])ccc1C21c2ccccc2C(=O)N1/N=C/c1ccc(Cl)cc1Cl` (centres undefined), for which the inhibition came to 98% in test [1], 77% in test [3], 2.9% in test [7] and 83.8% in test [8]. The IC50 was 6.74 µM in test [2], more than 50 µM in test [4], more than 50 µM in test [5] and 6.25 µM in test [6].

In the case of `CCOc1ccc2c(c1)Oc1cc(OC(=O)c3ccccc3OC)ccc1C21c2ccccc2C(=O)N1/N=C/c1ccccc1OC` (centres undefined), the figures for the inhibition in test [1], in test [3] and in test [8] were 74%, 6.8% and 8.1%, respectively. Also, the IC50 in test [2] was more than 50 µM; in test [4] it was more than 50 µM; in test [5], 21.4 µM; in test [6] it was 1.92 µM.

Consider `CCOc1ccc2c(c1)Oc1cc(OC(=O)c3ccccc3Cl)ccc1C21c2ccccc2C(=O)N1/N=C/c1ccc(Cl)cc1` (centres undefined), for which the inhibition was found to be 90.5% in test [1], 36.4% in test [3], 1.5% in test [7] and 83.7% in test [8]. In addition, the IC50 in test [2] is more than 50 µM; in test [4] it was more than 50 µM; in test [5], more than 50 µM; in test [6], 28.7 µM.

Regarding `CCOc1ccc2c(c1)Oc1cc(OC(=O)c3ccccc3OC)ccc1C21c2ccccc2C(=O)N1/N=C/c1ccc(OC)c(OC(=O)c2ccccc2OC)c1` (centres undefined), the inhibition in test [1] stood at 73.1%; in test [3], 13.9%; in test [8], 4.9%. The IC50 was more than 50 µM in test [2], more than 50 µM in test [4], 23.6 µM in test [5] and more than 50 µM in test [6].

With `CCOc1ccc2c(c1)Oc1cc(O)ccc1C21c2ccccc2C(=O)N1/N=C/c1ccc(O)cc1` (centres undefined), the inhibition in test [1] is 36.5%; in test [3], 0%; in test [7], 3.3%; in test [8] it was 73.8%. For the same compound, the half-inhibitory concentration (IC50) in test [2] is 1.06 µM; in test [4], 4.66 µM; in test [5], 0.78 µM; in test [6], 0.03 µM.

In the case of `CCOc1ccc2c(c1)Oc1cc(OC(=O)c3ccccc3Cl)ccc1C21c2ccccc2C(=O)N1/N=C/c1ccccc1[N+](=O)[O-]` (centres undefined), the values for the inhibition in test [1], in test [3] and in test [8] were 39.8%, 0% and 5.4%, respectively. For the same compound, the IC50 was more than 50 µM in test [2], more than 50 µM in test [4], 7.75 µM in test [5] and 47 µM in test [6].

As for `CCOc1ccc2c(c1)Oc1cc(O)ccc1C21c2ccccc2C(=O)N1/N=C/c1ccc(Cl)cc1` (centres undefined), the inhibition in test [1] was 22.7%; in test [7], 1.3%; in test [8] it was 81.6%. Besides, the IC50 is 2.3 µM in test [2], 9.77 µM in test [4], 5.74 µM in test [5] and 2.19 µM in test [6].

As for `CCOc1ccc2c(c1)Oc1cc(O)ccc1C21c2ccccc2C(=O)N1/N=C/c1ccccc1OC` (centres undefined), the inhibition in test [1] was found to be 28.1%; in test [7], 3.3%; in test [8], 58.3%. The IC50 is more than 50 µM in test [2], more than 50 µM in test [4], more than 50 µM in test [5] and 0.67 µM in test [6].

For the compound `CCOc1ccc2c(c1)Oc1cc(O)ccc1C21c2ccccc2C(=O)N1/N=C/c1ccc(Cl)cc1Cl` (centres undefined), the inhibition in test [1] is 12.3%; in test [7], 2.3%; in test [8], 80%. Moreover, the IC50 in test [2] is more than 50 µM; in test [4] it was 23.2 µM; in test [5] it was more than 50 µM; in test [6] it was 3.17 µM.

For `CCOc1ccc2c(c1)Oc1cc(O)ccc1C21c2ccccc2C(=O)N1/N=C/c1ccc(OC)c(O)c1` (centres undefined), the inhibition in test [1] is 77.8%; in test [3], 4.2%; in test [7], 2.7%; in test [8], 37.9%. In addition, the IC50 in test [2] amounted to 1.93 µM; in test [4], 3.64 µM; in test [5], 1.61 µM; in test [6] it was 0.29 µM.

As to `CCOc1ccc2c(c1)Oc1cc(OC(=O)c3ccccc3Cl)ccc1C21c2ccccc2C(=O)N1/N=C/c1ccccc1OC` (centres undefined), the inhibition in test [1] came out at 55.2%; in test [3] it was 30%; in test [8], 7.8%. The IC50 in test [2] is 6.3 µM; in test [4], more than 50 µM; in test [5], more than 50 µM; in test [6], more than 50 µM.

Consider `CCOc1ccc2c(c1)Oc1cc(O)ccc1C21c2ccccc2C(=O)N1/N=C/c1ccc(OC)cc1` (centres undefined), for which the results for the inhibition in test [1], in test [7] and in test [8] were 0.8%, 3.6% and 65%, respectively.
